Among the data in patent US6492370B1, “Urea derivatives and pharmaceutical compositions thereof” (Santen Pharmaceutical Co., Ltd., priority 1998, dated 2002) are melting point and inhibition values, retold here.

Data set [1] deals with TNF-α production from human monocytic line THP-1 by LPS stimulation. As to the kind of experiment: In vitro test: TNF-α production from human monocytic line THP-1 by LPS stimulation. Format: cell-based. The conditions noted are these: 2 h; test compound 10^−5 M, THP-1 cells 10^6/ml, LPS 2 μg/ml, 37° C. for two hours, human TNF-α specific ELISA; read-out: Inhibition rate (%) (TNF-α inhibition rates). The protocol: Inhibitory effects on TNF-α production induced by lipopolysaccharide (LPS) stimulation were studied by in vitro or in vivo tests according to the method of McGeehan et al. (Nature, 370, […](1994)).
Analyses were carried out by measuring TNF-α production from human monocytic line THP-1 by LPS stimulation.
As a medium, an RPMI1640medium containing a fetal bovine serum(10%), L-glutamine (2 mM), 2-mercaptoethanol (50 μM), penicillin (50 units/ml) and streptomycin (50 μg/ml) was used.
With respect to cells, human monocytic line THP-1 cells cultured in the above-mentioned medium were centrifuged at 100×g for five minutes to remove supernatant and then re-suspended in the medium. With respect to LPS, LPS from S. Typhimurium was dissolved in purified water and then diluted with the medium. Test compounds were dissolved in dimethyl sulfoxide (DMSO) and then diluted with the medium.
The cells (10^6/ml), LPS (2 μg/ml) and the test compound (10^−5 M) prepared as mentioned above were mixed, and this mixture was incubated at 37° C. for two hours and then centrifuged at 1000×g […] in cultured supernatant were measured with a human TNF-α specific ELISA kit. TNF-α production was not observed in the cultured supernatant in the absence of LPS (control).
TNF-α production inhibition rates of the test compounds were determined by the following equation.
Inhibition rate (%)=[(A-B)/A]×100
A: TNF-α level in supernatant of culture medium in the absence of test compound
B: TNF-α level in supernatant of culture medium in the presence of test compound

By melting point is commonly meant the temperature, or range, at which the solid turns liquid. The term inhibition denotes the change of the read-out against control, counted positive when it falls.

`CCN(CC)CCNC(=O)[C@H](Cc1ccc([N+](=O)[O-])cc1)NC(=O)N(CCSC(C)=O)CCc1ccccc1` [Compound No. 27-47, (2S)-2-[3-[2-(Acetylthio)ethyl]-3-phenethylureido]-N-[2-(diethylamino)ethyl]-3-(4-nitrophenyl)propionamide] displayed a melting point of 65 °C. The inhibition at 10 µM in data set [1] turned out to be 100%.

Regarding `CC(=O)SCCN(CCc1ccccc1)C(=O)N[C@@H](Cc1ccc([N+](=O)[O-])cc1)C(=O)NCCN(C)C1CCCCC1` [Compound No. 27-46, (2S)-2-[3-[2-(Acetylthio)ethyl]-3-phenethylureido]-N-[2-[(N-methyl)cyclohexylamino]ethyl]-3-(4-nitrophenyl)propionamide], the melting point came out at 90 °C. The inhibition at 10 µM in data set [1] amounted to 100%.

On to `CC(=O)SCCN(CCc1ccccc1)C(=O)N[C@@H](Cc1ccc(-c2ccccc2)c([N+](=O)[O-])c1)C(=O)NCCN(C)C` [Compound No. 27-19, (2S)-2-[3-[2-(Acetylthio)ethyl]-3-phenethylureido]-N-[2-(dimethylamino)ethyl]-3-(2-nitro-4-biphenylyl)propionamide], for which the melting point was 90 °C. The inhibition at 10 µM in data set [1] came to 93.5%.
